Assay [1] concerns R2-Pu24T (G4 DNA) (DNA, G4) AGCACTCTAGCTCTATGAGGGTGGTGAGGGTGGGGAAGG
Briefly: 1H NMR imino shifts. To be noted: K+, 10 mM potassium phosphate; pH 7.4, 298 K.

The test system of assay [2] is Cy5-Pu24T G4 (DNA, G4) AGCACTCTAGCTCTATGAGGGTGGTGAGGGTGGGGAAGG
Description: microscale thermophoresis. To be noted: 100 mM KCl, 10 mM potassium phosphate; pH 7.4, 0.05% Tween 20; 20 nM labelled DNA; GL 0.6 nM to 2.5 μM.

In the case of `Cc1cc(N2CCNCC2)nc(Nc2nc(C)c3ccc4c(c3n2)CCC4)n1`, the binding result in assay [1] was “yes”. Also, in assay [2], the Kd was > 200 nM.

In general, Kd refers to the constant that tells how readily two partners part at equilibrium. A lower Kd goes with a tighter complex.

The record behind these values is PMC10941181 (2024).
